Tests used:
Format in all cases: in vivo
[1] = tested on: common (oilseed) sunflower (Helianthus annuus); assay: Test C pre-/postemergence: sunflower; details: Preemergence
Excerpt: (§1) Seeds of plant species selected from blackgrass (Alopecurus myosuroides), bromegrass, downy (downy bromegrass, Bromus tectorum), foxtail, green (green foxtail, Setaria viridis), ryegrass, Italian (Italian ryegrass, Lolium multiflorum), winter wheat (Triticum aestivum), wild oat (Avena fatua), galium (catchweed bedstraw, Galium aparine), bermudagrass (Cynodon dactylon), surinam grass (Brachiaria decumbens), cocklebur (common cocklebur, Xanthium strumarium), corn (Zea mays), large crabgrass (Digitaria sanguinalis), woolly cupgrass (Eriochloa villosa), foxtail, giant (giant foxtail, Setaria faberii), goosegrass (Eleusine indica), johnsongrass (Sorghum halepense), kochia (Kochia scoparia), lambsquarters (Chenopodium album), morningglory (Ipomoea coccinea), nightshade (eastern black nightshade, Solanum ptycanthum), nutsedge, yellow (yellow nutsedge, Cyperus esculentus), pigweed (Amaranthus retroflexus), ragweed (common ragweed, Ambrosia elation), soybean (Glycine max), common (oilseed) sunflower (Helianthus annuus), Russian thistle (Salsola kali) and velvetleaf (Abutilon theophrasti) were planted into a blend of loam soil and sand and treated preemergence with test chemicals formulated in a non-phytotoxic solvent mixture which included a surfactant.
(§2) At the same time, plants selected from these crop and weed species and also barley (winter barley, Hordeum vulgare), canarygrass (Phalaris minor), chickweed (common chickweed, Stellaria media) windgrass (Apera spica-venti) and deadnettle (henbit deadnettle, Lamium amplexicaule) were planted in pots containing Redi-Earth® planting medium (Scotts Company, 14111 Scottslawn Road, Marysville, Ohio 43041) comprising spaghnum peat moss, vermiculite, wetting agent and starter nutrients and treated with postemergence applications of test chemicals formulated in the same manner. Plants ranged in height from 2 to 18 cm (1- to 4-leaf stage) for postemergence treatments.
(§3) Treated plants and controls were maintained in a greenhouse for 13 to 15 days, after which time all species were compared to controls and visually evaluated. Plant response ratings, summarized in Table C, are based on a scale of 0 to 100 where 0 is no effect and 100 is complete control. A dash (-) response means no test result.

[2] = tested on: woolly cupgrass (Eriochloa villosa); assay: Test C pre-/postemergence: woolly cupgrass
Excerpt: as §1, §2, §3

[3] = tested on: bermudagrass (Cynodon dactylon); assay: Test C pre-/postemergence: bermudagrass
Excerpt: as §1, §2, §3

[4] = 31 g ai/ha, scale of 0 to 100, 0 is no effect, 100 is complete control
[5] = 62 g ai/ha, scale of 0 to 100, 0 is no effect, 100 is complete control
[6] = 125 g ai/ha, scale 0 to 100, 0 no effect, 100 complete control
[7] = 250 g ai/ha, scale 0 to 100, 0 no effect, 100 complete control
[8] = Postemergence, 31 g ai/ha, scale 0 to 100 (0 no effect, 100 complete control)
[9] = Postemergence, 62 g ai/ha, scale 0 to 100 (0 no effect, 100 complete control)
[10] = Postemergence, 125 g ai/ha, scale 0 to 100, 0 no effect, 100 complete control
[11] = Preemergence, 31 g ai/ha, scale of 0 to 100, 0 is no effect, 100 is complete control
[12] = Preemergence, 62 g ai/ha, scale of 0 to 100, 0 is no effect, 100 is complete control
[13] = Preemergence, 125 g ai/ha, scale 0 to 100, 0 no effect, 100 complete control
[14] = Preemergence, 250 g ai/ha, scale 0 to 100, 0 no effect, 100 complete control
[15] = Postemergence, 250 g ai/ha, scale 0 to 100
[16] = Preemergence, 62 g ai/ha, scale 0 to 100, 0 no effect, 100 complete control

| Structure (SMILES) | Plant response rating, Sunflower [1, 4] | Plant response rating, Sunflower [1, 5] | Plant response rating, Sunflower [1, 6] | Plant response rating, Sunflower [1, 7] | Plant response rating, Cupgrass, Woolly [2, 8] | Plant response rating, Cupgrass, Woolly [2, 9] | Plant response rating, Cupgrass, Woolly [2, 10] | Plant response rating, Cupgrass, Woolly [2, 11] | Plant response rating, Cupgrass, Woolly [2, 12] | Plant response rating, Cupgrass, Woolly [2, 13] | Plant response rating, Cupgrass, Woolly [2, 14] | Plant response rating, Bermudagrass [3, 8] | Plant response rating, Bermudagrass [3, 9] | Plant response rating, Bermudagrass [3, 10] | Plant response rating, Bermudagrass [3, 15] | Plant response rating, Bermudagrass [3, 11] | Plant response rating, Bermudagrass [3, 12] | Plant response rating, Bermudagrass [3, 13] | Plant response rating, Bermudagrass [3, 14] | Plant response rating, Cupgrass, Woolly [2, 15] | other results |
| --- | --- | --- | --- | --- | --- | --- | --- | --- | --- | --- | --- | --- | --- | --- | --- | --- | --- | --- | --- | --- | --- |
| COc1nn(-c2cccc(F)c2)nc1Cc1ccnc(C(F)(F)F)c1 [Compound 139] | 0 | 0 | 5 | 10 | 15 | 30 | 50 | 30 | 40 | 75 | 90 | 35 | 40 | 55 | 80 | 98 | 100 | 100 | 100 |  |  |
| FC(F)(F)c1ccc(-n2nc(Cl)c(Cc3ccnc(C(F)(F)F)c3)n2)cc1 [Compound 28] |  |  |  |  | 20 | 30 | 35 |  |  |  |  | 10 | 15 | 20 | 25 |  |  |  |  | 40 |  |
| Cc1nn(-c2ccc(F)cc2F)nc1Oc1ccnc(C(F)(F)F)c1 [Compound 146] | 10 | 20 | 30 | 35 |  |  |  | 40 | 45 | 90 | 100 |  |  |  |  | 98 | 98 | 98 | 98 |  |  |
| FC(F)Oc1nn(-c2ccc(C(F)(F)F)cc2)nc1Cc1ccnc(C(F)(F)F)c1 [Compound 26] | 0 |  | 10 | 15 | 25 | 40 | 45 | 10 | 65 | 70 | 90 | 20 | 20 | 30 | 30 | 75 |  | 100 | 100 | 55 | Plant response rating, Bermudagrass [3, 16]: 100 |
| Cc1nn(-c2ccnc(Cl)c2)nc1Cc1ccnc(C(F)(F)F)c1 [Compound 141] |  |  |  |  | 15 | 20 | 30 |  |  |  |  | 15 |  | 55 | 95 |  |  |  |  | 45 |  |
| Fc1ccc(-n2nc(Cc3ccnc(C(F)(F)F)c3)c(OC(F)F)n2)cc1 [Compound 25] | 0 | 0 | 0 | 0 | 25 | 25 | 25 | 20 | 40 | 65 | 98 | 15 | 20 | 25 | 25 | 85 |  | 98 | 100 | 45 | Plant response rating, Bermudagrass [3, 16]: 98 |

Source: US9302999B2, “Substituted triazoles as herbicides” (E. I. DU PONT DE NEMOURS AND COMPANY, priority 2012, dated 2016)
